Source: paper PMC7340583, “The yeast cell wall protein Pry3 inhibits mating through highly conserved residues within the CAP domain” (Biology Open, 2020)
Where a chain is given by its changes, count along the chain named. Read-outs that look alike come from different tables or passages of the source.

Assays:
Test in all cases: radioligand binding, Q-sepharose adsorption, scintillation counting
[1] = target: T1, Pry3 CAP domain (Pry3-CAP) (Saccharomyces cerevisiae, UniProt P47033, P105C/A155C); conditions: labelled compound; 20 mM Tris pH 7.5, 30 mM NaCl, 0.05% Triton X-100, 30°C, 1 h
T1 sequence (P47033 18-161 P105C/A155C): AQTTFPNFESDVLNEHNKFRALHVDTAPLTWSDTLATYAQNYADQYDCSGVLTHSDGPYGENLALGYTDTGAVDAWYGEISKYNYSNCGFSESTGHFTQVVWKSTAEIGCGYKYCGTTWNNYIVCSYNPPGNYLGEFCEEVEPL

[2] = target: T2, Pry3 CAP domain (Pry3-CAP) (Saccharomyces cerevisiae, UniProt P47033, C142S); conditions: labelled compound; 20 mM Tris pH 7.5, 30 mM NaCl, 0.05% Triton X-100, 30°C, 1 h
T2 sequence (P47033 18-161 C142S): T1 sequence (P47033 18-161 P105C/A155C) with C88P, C125S, C138A

Pry1 CAP domain = target: T3, Pry1 CAP domain (Saccharomyces cerevisiae, UniProt P47032)
T3 sequence (P47032 20-299 limits assumed): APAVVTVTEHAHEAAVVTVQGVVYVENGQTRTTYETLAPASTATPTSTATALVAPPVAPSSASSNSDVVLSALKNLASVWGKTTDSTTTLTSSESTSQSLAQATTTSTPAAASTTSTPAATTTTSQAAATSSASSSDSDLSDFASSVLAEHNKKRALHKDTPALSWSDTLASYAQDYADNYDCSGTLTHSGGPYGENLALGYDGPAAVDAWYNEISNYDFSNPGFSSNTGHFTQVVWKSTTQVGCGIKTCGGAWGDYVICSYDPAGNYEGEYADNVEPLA
From the text: radioligand binding, Q-sepharose adsorption, scintillation counting on Pry1 CAP domain | Polyhistidine-tagged versions of the CAP domain of Pry1, Pry3 and mutant versions of Pry3 | The affinity of Pry3 to palmitic acid is thus similar to that of Pry1

[3] = target: T4, Pry3 CAP domain (Pry3-CAP) (Saccharomyces cerevisiae, UniProt P47033)
T4 sequence (P47033 18-161): T1 sequence (P47033 18-161 P105C/A155C) with C88P, C138A

[4] = target: T5, Pry3 CAP domain (Pry3-CAP) (Saccharomyces cerevisiae, UniProt P47033, V117M); conditions: labelled compound; 20 mM Tris pH 7.5, 30 mM NaCl, 0.05% Triton X-100, 30°C, 1 h
T5 sequence (P47033 18-161 V117M): T1 sequence (P47033 18-161 P105C/A155C) with C88P, V100M, C138A

Row | Kd (Pry1 CAP domain) [µM] | Structure (SMILES) | radioligand binding, Q-sepharose adsorption, scintillation counting [1] | radioligand binding, Q-sepharose adsorption, scintillation counting [2] | Kd (Pry1 CAP domain; labelled compound, 20 mM Tris pH 7.5, 30 mM NaCl, 0.05% Triton X-100, 30°C, 1 h) [µM] | Kd [3] [µM] | radioligand binding, Q-sepharose adsorption, scintillation counting [4]
1 |  | CC(C)CCC[C@@H](C)[C@H]1CC[C@H]2[C@@H]3CC=C4C[C@@H](O)CC[C@]4(C)[C@H]3CC[C@]12C [cholesterol] | decreased sterol-binding of Pry3-CAP^P105C, A155C to background levels | as present in Pry3-CAP^C142S, disrupted sterol binding in vitro | 1.88 | 13.1 | 
2 | 111 | CCCCCCCCCCCCCCCC(=O)O [palmitic acid] |  |  |  | 114 | Pry3^V117M failed to efficiently bind palmitic acid in vitro
